Laboratory results from patent US20090143335A1, “MODIFIED ABSORPTION FORMULATION OF GABOXADOL” (H. LUNDBECK A/S, priority 2007, published 2009).

What was measured:
[1] = Pharmacokinetics of gaboxadol in beagle dogs, IV or PO, with or without co-administered tryptophan; format: in vivo; conditions: dog; for bioavailability: Fa (bioavailability)
Experimental: Prior to commencement of the studies the protocols were approved by the Animal Welfare Committee, appointed by the Danish Ministry of Justice and all animal procedures were carried out in compliance with EC Directive 86/609/EEC, the Danish law regulating experiments on animals and NIH Guidelines for the Care and Use of Laboratory Animals. 6 full-grown male beagle dogs (body weight 15.9-21.7 kg) were selected and allocated into a roman quadrant design and assigned to receive all 6 formulations of gaboxadol hydrochloride randomly during 6 weeks. The dogs were fasted 20-24 hours before the initiation of the experiment and fed again 10 hours after the administration. The gaboxadol dose was given either as an intravenous injection (1.0 ml/kg) or as an oral solution given by gavage (5.0 ml/kg) directly into the stomach using a soft tube. All dogs received 2.5 mg/kg gaboxadol. In addition to gaboxadol, the oral formulations contained 0, 2.5, 10.0, 50.0 or 150.0 mg/kg of tryptophan to ensure simultaneous co-administration of the two compounds. All solutions were adjusted to a pH of 5.2 and osmolarity was checked with a Vapro vapour pressure osmometer (model 5520, Wescor Inc. Logan, Utah, USA), the intravenous solutions were adjusted to isoosmolarity with glucose. Blood samples of 2.0 ml were taken from the vena cephalica by individual vein puncture and collected into Eppendorf tubes containing 200 IE heparin as anticoagulant. Samples were collected before administration of gaboxadol and after 5, 15, 30, 60, 90 minutes and 2, 3, 4, 6, 8 and 10 hours after gaboxadol administration. The plasma was harvested immediately by centrifugation for 15 minutes at 2200 g and 4-8° C. and stored at −80° C. until further analysis. After each day of gaboxadol dosing the animals had 6 days of washout.
(§1) The pharmacokinetics (PK) was evaluated in WinNonlin. Plasma concentrations curves of the animals dosed intravenously were fitted to a 2-compartment model whereas the data from animals dosed orally were analysed in a non-compartment model. Statistical analysis was done in Sigma Stat.
Gaboxadol was extracted from plasma and HBSS^+ samples by liquid extraction. 100 μl HBSS^+ (80 μl purified water were added to the 20 μl samples) or 100 μl plasma samples were mixed with 25 μl intern standard (d4-gaboxadol) and 25 μl purified water. Protein precipitation was carried out by addition of 400 μl cold acetonitrile. After centrifugation at 10,000 g in 15 minutes, 425 μl supernatant was transferred to glass tubes and evaporated to dryness under nitrogen at 45° C. The samples were re-solved in 80 μl methanol/acetonitrile (30:70), whirl mixed for 10 minutes and centrifuged in 3 minutes at 3000 rpm, before transferal to medium well plates and placed at 10° C. in the autosampler. Gaboxadol concentration in the extracted samples was subsequently quantified by hydrophilic interaction chromatography (HILIC-chromatography) followed by MS/MS detection. The LC system comprised of an Agilent 1100 series pump and degasser, a CTC Analytics interface transferred data to the computer and a Peltier Thermostat and HTC Pal autosampler handled the samples. An Asahipak amino column, (NH2P-50, 150×2 mm) from Phenomenex was used for the chromatographic separation with a mobile phase of 20.0 mM ammoniumacetat pH=4:acetonitrile (30:70) and a flow rate of 0.2 ml/min. 20 μL samples were injected onto the column, which was kept at room temperature. The total runtime was 10 minutes with the first 5 minutes of elution let to waste. The elution time of gaboxadol on the column was approximately 8 minutes. The MS/MS system used consisted of a Sciex API 4000 MS/MS detector with a Turbo Ion Spray and Turbo V source (Applied Biosystems). The detection was performed in negative ionization mode where gaboxadol (precursor 139.1 Da, product 110.1 Da) and d4-gaboxadol (precursor 143.0, product 112.2 Da) were measured by multiple-reaction-monitoring (MRM). […]

[2] = Pharmacokinetics of gaboxadol in rats after PO dosing, with or without 5-HTP pre-incubation; format: in vivo, Sprague-Dawley rats; conditions: rat; for Cmax: Cmax ± S.E.M.; for Tmax: Tmax ± S.E.M.
Experimental: as §1
(§2) Gaboxadol was extracted from plasma and HBSS^+ samples by liquid extraction. 100 μl HBSS^+ (80 μl purified water were added to the 20 μl samples) or 100 μl plasma samples were mixed with 25 μl intern standard (d4-gaboxadol) and 25 μl purified water. Protein precipitation was carried out by addition of 400 μl cold acetonitrile. After centrifugation at 10,000 g in 15 minutes, 425 μl supernatant was transferred to glass tubes and evaporated to dryness under nitrogen at 45° C. The samples were re-solved in 80 μl methanol/acetonitrile (30:70), whirl mixed for 10 minutes and centrifuged in 3 minutes at 3000 rpm, before transferal to medium well plates and placed at 10° C. in the autosampler. Gaboxadol concentration in the extracted samples was subsequently quantified by hydrophilic interaction chromatography (HILIC-chromatography) followed by MS/MS detection. The LC system comprised of an Agilent 1100 series pump and degasser, a CTC Analytics interface transferred data to the computer and a Peltier Thermostat and HTC Pal autosampler handled the samples. An Asahipak amino column, (NH2P-50, 150×2 mm) from Phenomenex was used for the chromatographic separation with a mobile phase of 20.0 mM ammoniumacetat pH=4:acetonitrile (30:70) and a flow rate of 0.2 ml/min. 20 μL samples were injected onto the column, which was kept at room temperature. The total runtime was 10 minutes with the first 5 minutes of elution let to waste. The elution time of gaboxadol on the column was approximately 8 minutes. The MS/MS system used consisted of a Sciex API 4000 MS/MS detector with a Turbo Ion Spray and Turbo V source (Applied Biosystems). The detection was performed in negative ionization mode where gaboxadol (precursor 139.1 Da, product 110.1 Da) and d4-gaboxadol (precursor 143.0, product 112.2 Da) were measured by multiple-reaction-monitoring (MRM). The signals were linear between 0.5 and 2500.0 ng/ml and the limit of quantification by this procedure was 0.5 ng/ml. The software was from Analyst™ (Applied Biosystem, version 4.0).
0.05 or 0.5 mg gaboxadol as well as 0.0 or 20.0 mg 5-HTP was dissolved in purified water pr ml. at room temperature and placed on ice in ultrasound for 10 min. The formulations were adjusted to pH 4-5 and with NaOH/HCl and made isotonic by addition of mannitol. pH of all solutions was adjusted to pH above 4.0 and below 5.0, the osmolality was adjusted with mannitol to 280 mmol/kg.
(§3) Male Sprague-Dawley rats (Charles River Laboratories, Wilmington, Mass., USA) of 220-240 gram were housed and acclimated for 7 days before entering the experiments. The rats were maintained on standard food and water until 16-20 hours prior to dosing when food was retrieved to insure complete gastric emptying before experiments were conducted. Water was available to the animals until beginning of experiment and again 2 hours after. Each animal was randomly assigned to receive either one of the intravenous or oral formulations.
6 parallel groups of rats (n=6) were given isotonic solutions of 0.5 or 5.0 mg/kg of gaboxadol together with saline or 200.0 mg/kg 5-HTP, by oral gavage (10.0 ml/kg). The suspensions of 5-HTP were given as a pre-incubation 30 min. prior to the gaboxadol solutions.
(§4) Blood samples of 0.2 ml were taken from the tail vein by individual vein puncture and collected into plasma collection tubes containing 20 IE heparin. Samples were collected at 5, 15, 30, 45, 60 minutes and after 2, 3, 4, 6, 8 hours after gaboxadol administration. The plasma was harvested immediately by centrifugation for 10 min. at 3.600 g and stored at −80° C. until further analysis.

[3] = Pharmacokinetics of gaboxadol in rats after IV dosing, with or without 5-HTP pre-incubation; format: in vivo, Sprague-Dawley rats; conditions: rat; for Ke ± S.E.M.: IV gaboxadol 2.5 mg/kg
Experimental: as §1, §2, §3, §4
0.25 mg gaboxadol as well as 0.0 or 10.0 mg 5-HTP was dissolved in purified water pr ml. at room temperature and placed on ice in ultrasound for 10 min. The solutions of gaboxadol used for intravenous injection was filtered through a 0.45 μm filter.
Animals were administered with 100.0 mg/kg 5-HTP or saline by oral gavage 30 min. prior to intravenous injection of 2.5 mg/kg gaboxadol into the tail vein […].

[4] = male, beagle, in vivo, po, 2.5 mg/kg
[5] = male, beagle, in vivo, po, 10 mg/kg
[6] = male, beagle, in vivo, po, 50 mg/kg
[7] = male, beagle, in vivo, po, 150 mg/kg
[8] = male, Sprague-Dawley, in vivo, po
[9] = male, Sprague-Dawley, in vivo, po, 0.5 mg/kg
[10] = male, Sprague-Dawley, in vivo, po, 5 mg/kg
[11] = male, Sprague-Dawley, in vivo, iv, 2.5 mg/kg

For Oc1noc2c1CCNC2 [gaboxadol, 4,5,6,7-tetrahydroisoxazolo [5,4-c]pyridine-3-ol], the “decrease of maximal gaboxadol plasma concentration, Cmax, by tryptophan coadministration” value ([1]; PO 2.5 mg/kg gaboxadol, presence vs absence of 150 mg/kg tryptophan, p<0.001) was 57%, the ke ([1]; group A, IV 2.5 mg gaboxadol/kg, tryptophan 0 mg/kg) was 1.02 ± 0.14 h⁻¹ and the ke ([1]; group B, PO 2.5 mg gaboxadol/kg, tryptophan 0 mg/kg) was 0.46 ± 0.02 h⁻¹. For the same molecule, the ke ([1]; group C, PO 2.5 mg gaboxadol/kg, tryptophan 2.5 mg/kg) was 0.50 ± 0.03 h⁻¹, the ke ([1]; group D, PO 2.5 mg gaboxadol/kg, tryptophan 10 mg/kg) was 0.44 ± 0.03 h⁻¹ and the ke ([1]; group E, PO 2.5 mg gaboxadol/kg, tryptophan 50 mg/kg) was 0.50 ± 0.03 h⁻¹. The ke ([1]; group F, PO 2.5 mg gaboxadol/kg, tryptophan 150 mg/kg) was 0.48 ± 0.07 h⁻¹, the “effect of tryptophan coadministration on elimination rate constants (ke) and clearance (CL) of gaboxadol” value ([1]; in vivo, po) was “did not change” and the clearance ([1]; male, beagle, in vivo, iv, 2.5 mg/kg) was 7.6 mL/min/kg. The AUC ([1]; male, beagle, in vivo, iv, 2.5 mg/kg, AUC) was 5620 ± 377 ng·h/mL, the Cmax ([1]; male, beagle, in vivo, iv, 2.5 mg/kg, Cmax) was 5490 ± 404 ng/mL and the AUC [1, 4] was 4760 ± 350 ng·h/mL. For the same molecule, the Cmax [1, 4] was 2473 ± 178 ng/mL, the “Fa (bioavailability)” value [1, 4] was 86.1% and the Tmax [1, 4] was 21 ± 7.8 min. It also gave an AUC ([1]; male, beagle, in vivo, po, 2.5 mg/kg, AUC) of 4720 ± 248 ng·h/mL, a Cmax ([1]; male, beagle, in vivo, po, 2.5 mg/kg, Cmax) of 2500 ng/mL and a bioavailability [1, 4] of 85.3 ± 5.7%. The Tmax ([1]; male, beagle, in vivo, po, 2.5 mg/kg, Tmax) was 27.6 min, the CL [1, 5] was 10.8 ± 0.983 mL/min/kg and the AUC ([1]; male, beagle, in vivo, po, 10 mg/kg, AUC) was 4030 ± 339 ng·h/mL. It also gave a Cmax ([1]; male, beagle, in vivo, po, 10 mg/kg, Cmax) of 1870 ± 114 ng/mL, a bioavailability [1, 5] of 75% and a Tmax ([1]; male, beagle, in vivo, po, 10 mg/kg, Tmax) of 32.4 ± 9 min. The CL [1, 6] was 9.82 ± 0.433 mL/min/kg, the AUC ([1]; male, beagle, in vivo, po, 50 mg/kg, AUC) was 4290 ± 211 ng·h/mL and the Cmax ([1]; male, beagle, in vivo, po, 50 mg/kg, Cmax) was 1660 ± 37 ng/mL. For the same molecule, the bioavailability [1, 6] was 78.2 ± 6.3%, the Tmax ([1]; male, beagle, in vivo, po, 50 mg/kg, Tmax) was 27.6 ± 7.2 min and the CL [1, 7] was 11.7 ± 2.53 mL/min/kg. It also gave an AUC ([1]; male, beagle, in vivo, po, 150 mg/kg, AUC) of 4400 ± 801 ng·h/mL, a Cmax ([1]; male, beagle, in vivo, po, 150 mg/kg, Cmax) of 1420 ng/mL and a bioavailability [1, 7] of 79.7 ± 14.5%. For the same molecule, the Tmax ([1]; male, beagle, in vivo, po, 150 mg/kg, Tmax) was 90 min, the “Tmax ± S.E.M.” value [2, 8] was 43 min and the “Cmax ± S.E.M.” value [2, 9] was 294 ± 39.4 ng/mL. The Cmax [2, 9] was 273 ± 26.7 ng/mL, the Tmax [2, 9] was 16 min and the “Cmax ± S.E.M.” value [2, 10] was 1854 ± 509.4 ng/mL. It also gave a Cmax [2, 10] of 2060 ± 153 ng/mL, a Tmax [2, 10] of 20 min and a Tmax [2, 8] of 63 min. For the same molecule, the “AUC increase compared to the control group” value ([2]; PO gaboxadol 0.5 mg/kg with 5-HTP 200 mg/kg vs without) was 540%, the “AUC increase compared to the control group” value ([2]; PO gaboxadol 5.0 mg/kg with 5-HTP 200 mg/kg vs without) was 330% and the “gaboxadol elimination rate constant when 5-HTP was present, relative to control” value ([2]; PO gaboxadol, 5-HTP 200 mg/kg) was “about 25%”. The “AUC-dose-linearity: AUC of group J relative to group G” value ([2]; in vivo, 5 mg/kg) was ~10 times, the “Ke ± S.E.M.” value ([2]; treatment G, PO gaboxadol 0.5 mg/kg, no 5-HTP) was 0.0164 ± 0.0021 min⁻¹ and the “Ke ± S.E.M.” value ([2]; treatment H, PO gaboxadol 0.5 mg/kg, 5-HTP 200.0 mg/kg 30 min before) was 0.0038 ± 0.0004 min⁻¹. For the same molecule, the “Ke ± S.E.M.” value ([2]; treatment I, PO gaboxadol 5.0 mg/kg, no 5-HTP) was 0.0199 ± 0.0017 min⁻¹, the “Ke ± S.E.M.” value ([2]; treatment J, PO gaboxadol 5.0 mg/kg, 5-HTP 200.0 mg/kg 30 min before) was 0.0058 ± 0.0008 min⁻¹ and the “Cmax ± S.E.M.” value [3, 11] was 4109 ± 302.6 ng/mL. The T1/2 [3, 11] was 44 min, the Tmax [3, 11] was 5 min and the “Tmax ± S.E.M.” value [3, 11] was 5 ± 0.0 min. The Cmax ([3]; male, Sprague-Dawley, in vivo, iv, 2.5 mg/kg, Cmax ± S.E.M.) was 2850 ± 312 ng/mL, the half-life ([3]; male, Sprague-Dawley, in vivo, iv, 2.5 mg/kg, T1/2) was 26 min and the “AUC-dose-linearity: AUC of group G relative to group K” value ([3]; in vivo) was “five times”. For the same molecule, the “AUC of group K relative to group L” value ([3]; in vivo, iv, 2.5 mg/kg) was ~3 times, the “Ke ± S.E.M.” value ([3]; treatment K, no 5-HTP) was 0.0266 ± 0.0008 min⁻¹ and the “Ke ± S.E.M.” value ([3]; treatment L, 5-HTP 100 mg/kg by oral gavage 30 min prior) was 0.0181 ± 0.0030 min⁻¹.
